Laboratory results from patent US6472348B1, “Pyridone derivatives and herbicides” (Kumiai Chemical Industry Co., Ltd., priority 1996, dated 2002).

What was measured:
cotton (Go) = assay: Test Example 4: crop plant selectivity by upland field soil treatment (cotton), phytotoxicity; type: in vivo; parameters: scale not given here; details: evaluated 21st day after application
In short: (§1)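 Sand-filled pots, seeds sown then soil-covered; soil application; greenhouse culture; visual scoring of weed control and cotton injury at day 21 post-application.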

green foxtail (Se) [1] = assay: Test Example 4: crop plant selectivity by upland field soil treatment (cotton), herbicidal effects; type: in vivo; parameters: scale not given here; details: evaluated 21st day after application
In short: as §1

China jute (Ab) = assay: Test Example 5: crop plant selectivity by upland field soil treatment (wheat), herbicidal effects; type: in vivo; parameters: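 grade of growth control; 5 = at least 90%; 4 = 70 to 90%; 3 = 50 to 70%; 2 = 30 to 50%; 1 = 10 to 30%; 0 = under 10%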; details: 21st day after application
In short: (§2)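 A greenhouse pot test in which wheat and weeds share sand-filled pots; after the soil application, damage is graded against set standards three weeks later.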

[2] = system: common lambsquarters (Ch); assay: as above; type: in vivo; parameters: scale not given here; details: 21st day after application
In short: as §2

green foxtail (Se) [3] = assay: as above; type: in vivo; parameters: scale not given here; details: 21st day after application
In short: as §2

pale smartweed (Po) = assay: as above; type: in vivo; parameters: scale not given here; details: 21st day after application
In short: as §2

slender amaranth (Am) = assay: as above; type: in vivo; parameters: scale not given here; details: 21st day after application
In short: as §2

soybean (Gl) = assay: Test Example 6: crop plant selectivity by upland field soil treatment (soybean), phytotoxicity; type: in vivo; parameters: scale not given here; details: 21st day after application
In short: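 Greenhouse pot test with soil-applied compound after sowing soybean and weeds in sand; effects graded on day 21 after application.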

corn (Ze) = assay: Test Example 7: crop plant selectivity by upland field soil treatment (corn), phytotoxicity; type: in vivo; parameters: scale not given here; details: 21st day after application
In short: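 Scoring of weed kill and corn injury was done on day 21 after the application, using defined standards. Before that, sown seeds in sand-filled pots were covered with soil, treated, and grown in a greenhouse.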

wheat (Tr) = assay: Test Example 9: crop plant selectivity by upland field foliage treatment (wheat), phytotoxicity; details: dose 1.6 g ai/10a, 14th day after treatment;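 also: grade of crop injury; 5 = at least 90%; 4 = 70 to 90%; 3 = 50 to 70%; 2 = 30 to 50%; 1 = 10 to 30%; 0 = under 10%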
In short: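 Wheat and weeds sown in sand-filled pots, grown 2 weeks in a greenhouse, then foliage-treated. Herbicidal effect and crop phytotoxicity were scored 14 days after treatment against a rating scale.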

Row | Structure (SMILES) | Phytotoxicity Go (cotton (Go); dose 1.6 g ai/10 a) | Phytotoxicity Go (cotton (Go); dose 6.3 g ai/10 a) | Herbicidal effects Se (green foxtail (Se) [1]; dose 1.6 g ai/10 a) | Herbicidal effects Se (green foxtail (Se) [1]; dose 6.3 g ai/10 a) | Herbicidal effects Ab (China jute (Ab); dose 1.6 g ai/10a) | Herbicidal effects Ab (China jute (Ab); dose 6.3 g ai/10a) | Herbicidal effects Ch ([2]; dose 1.6 g ai/10a) | Herbicidal effects Ch ([2]; dose 6.3 g ai/10a) | Herbicidal effects Se (green foxtail (Se) [3]; dose 1.6 g ai/10a) | Herbicidal effects Se (green foxtail (Se) [3]; dose 6.3 g ai/10a) | Herbicidal effects Po (pale smartweed (Po); dose 1.6 g ai/10a) | Herbicidal effects Po (pale smartweed (Po); dose 6.3 g ai/10a) | Herbicidal effects Am (slender amaranth (Am); dose 1.6 g ai/10a) | Herbicidal effects Am (slender amaranth (Am); dose 6.3 g ai/10a) | Phytotoxicity Gl (soybean (Gl); dose 1.6 g ai/10a) | Phytotoxicity Ze (corn (Ze); dose 1.6 g ai/10a) | Phytotoxicity Ze (corn (Ze); dose 6.3 g ai/10a) | Phytotoxicity Tr (wheat (Tr)) | Phytotoxicity Gl (soybean (Gl); dose 6.3 g ai/10a)
1 | C=CCOc1cc(-c2ccc(C(F)(F)F)n(C)c2=O)c(F)cc1Cl [1-16] | 0 | 0 | 5 | 5 | 5 | 5 | 5 | 5 | 5 | 5 | 5 | 5 | 5 | 5 | 1 | 0 | 1 | 2 | 
2 | C#CCOc1cc(-c2ccc(C(F)(F)F)n(C)c2=O)c(Cl)cc1Cl [1-30] | 0 | 1 | 5 | 5 | 5 |  | 5 |  | 5 |  | 5 |  | 5 |  | 1 | 1 | 2 | 2 | 
3 | CC(C)Sc1cc(-c2ccc(C(F)(F)F)n(C)c2=O)c(F)cc1Cl [1-43] |  | 0 |  | 5 |  | 4 |  | 5 |  | 5 |  | 5 |  | 5 |  |  | 1 | 2 | 1
4 | C#CCSc1cc(-c2ccc(C(F)(F)F)n(C)c2=O)c(F)cc1Cl [1-44] |  | 1 |  | 5 |  | 5 |  | 5 |  | 5 |  | 5 |  | 5 |  |  | 1 | 2 | 1
5 | CCOC(=O)c1cc(-c2ccc(C(F)(F)F)n(C)c2=O)c(F)cc1Cl [1-65] | 0 | 0 | 5 | 5 | 5 | 5 | 5 | 5 | 5 | 5 | 5 | 5 | 5 | 5 | 1 | 1 | 2 | 2 | 1
6 | COCSc1cc(-c2ccc(C(F)(F)F)n(C)c2=O)c(F)cc1Cl [1-91] | 0 | 1 | 5 | 5 | 5 |  | 5 |  | 5 |  | 5 |  | 5 |  | 0 | 1 | 2 | 2 | 1
7 | Cn1c(C(F)(F)F)ccc(-c2cc(OCC3CC3)c(Cl)cc2F)c1=O [1-160] |  | 1 |  | 5 |  | 5 |  | 5 |  | 5 |  | 5 |  | 5 |  |  | 1 | 2 | 1
8 | Cn1c(C(F)(F)F)ccc(-c2cc(OCCCl)c(Cl)cc2F)c1=O [1-171] |  | 0 |  | 5 |  | 5 |  | 5 |  | 5 |  | 5 |  | 5 |  |  | 0 | 2 | 1
9 | C#CCOc1cc(-c2ccc(C(F)(F)F)n(N)c2=O)c(F)cc1Cl [1-178] | 1 | 1 | 5 | 5 | 5 |  | 5 |  | 5 |  | 5 |  | 5 |  |  | 2 |  | 2 | 
10 | COc1cc(-c2ccc(C(F)(F)F)n(N)c2=O)c(F)cc1Cl [1-179] |  | 0 |  | 5 |  | 5 |  | 5 |  | 5 |  | 5 |  | 5 |  |  | 1 | 2 | 
11 | C#CC(C)Oc1cc(Cl)cc(F)c1-c1ccc(C(F)(F)F)n(C)c1=O (stereo not drawn) [1′-5] | 0 | 0 | 4 | 5 | 5 | 5 | 5 | 5 | 4 | 5 | 5 | 5 | 5 | 5 | 1 | 1 | 2 | 1 | 2
12 | C=CC(C)Oc1cc(-c2ccc(C(F)(F)F)n(C)c2=O)c(F)cc1Cl (stereo not drawn) [Compound 1-182] |  | 0 |  | 5 |  | 5 |  | 5 |  | 5 |  | 5 |  | 5 |  |  | 1 | 1 | 1
13 | CCON=Cc1cc(-c2ccc(C(F)(F)F)n(C)c2=O)c(F)cc1Cl [Compound 1-187] |  | 0 |  | 5 |  | 5 |  | 5 |  | 5 |  | 5 |  | 5 |  |  | 1 | 2 | 1
14 | CCOC(=O)CON=Cc1cc(-c2ccc(C(F)(F)F)n(C)c2=O)c(F)cc1Cl [Compound 1-191] |  | 1 |  | 5 |  | 5 |  | 5 |  | 5 |  | 5 |  | 5 |  |  | 1 | 2 | 2
15 | C=CC(O)c1cc(-c2ccc(C(F)(F)F)n(C)c2=O)c(F)cc1Cl (stereo not drawn) [Compound 1-197] |  | 1 |  | 5 |  | 5 |  | 5 |  | 5 |  | 5 |  | 5 |  |  | 1 | 2 | 1
16 | C#CC(O)c1cc(-c2ccc(C(F)(F)F)n(C)c2=O)c(F)cc1Cl (stereo not drawn) [Compound 1-202] | 1 | 1 | 5 | 5 | 5 |  | 5 |  | 5 |  | 5 |  | 5 |  | 2 | 1 |  | 2 | 
